Reference: paper PMC5146859, “Phase 1/2 study of pacritinib, a next generation JAK2/FLT3 inhibitor, in myelofibrosis or other myeloid malignancies” (Journal of Hematology & Oncology, 2016)

Tested on: patients with advanced myeloid malignancies
Assay: Phase 1 safety: adverse events (NCIC-CTCAE version 3.0)
Assay type: in vivo, human
Experimental: At screening/baseline, patients underwent a medical history, physical examination, vital sign assessment, ECOG PS assessment, electrocardiogram, and assessment of hematologic parameters and blood chemistry. Hematology/blood chemistry, physical examinations, and vital sign assessments were performed throughout treatment. Toxicity was assessed using the National Cancer Institute Common Terminology Criteria for Adverse Events (NCIC-CTCAE), version 3.0, with relationship to treatment assigned by the investigator and were recorded from the first dose of pacritinib until 30 days after the last dose. Bone marrow biopsy and/or aspirate samples were drawn at baseline, on day 1 of cycle 4 and cycle 10, as clinically indicated, and at the termination visit. Disease response and progression were determined using the relevant International Working Group (IWG) criteria.
The efficacy-evaluable population included those patients with a baseline and corresponding follow-up value. The safety population included all enrolled patients who received ≥1 dose of pacritinib.

SMILES: C1=C/COCc2cc(ccc2OCCN2CCCC2)Nc2nccc(n2)-c2cccc(c2)COC/1 [pacritinib, 11-(2-pyrrolidin-1-yl-ethoxy)-14,19-dioxa-5,7,26-triaza-tetracyclo[19.3.1.1(2,6). 1(8,12)]heptacosa-1(25),2(26),3,5,8,10,12(27),16,21,23-decaene]
- Treatment-emergent AE: Dehydration (phase 1, 200 mg, n = 9): 0 n (%)
- Treatment-emergent AE: Diarrhea (phase 1, 200 mg, n = 9): 5 (55.6) n (%)
- Treatment-emergent AE: Dizziness (phase 1, 200 mg, n = 9): 2 (22.2) n (%)
- Treatment-emergent AE: Dyspnea (phase 1, 200 mg, n = 9): 0 n (%)
- Treatment-emergent AE: Edema peripheral (phase 1, 200 mg, n = 9): 1 (11.1) n (%)
- Treatment-emergent AE: Epistaxis (phase 1, 200 mg, n = 9): 1 (11.1) n (%)
- Treatment-emergent AE: Fatigue (phase 1, 200 mg, n = 9): 3 (33.3) n (%)
- Treatment-emergent AE: Hyperbilirubinemia (phase 1, 200 mg, n = 9): 1 (11.1) n (%)
- Treatment-emergent AE: Hyperuricemia (phase 1, 200 mg, n = 9): 0 n (%)
- Treatment-emergent AE: Insomnia (phase 1, 200 mg, n = 9): 2 (22.2) n (%)
- Treatment-emergent AE: Nausea (phase 1, 200 mg, n = 9): 2 (22.2) n (%)
- Treatment-emergent AE: Neutropenia (phase 1, 200 mg, n = 9): 0 n (%)
- Treatment-emergent AE: Night sweats (phase 1, 200 mg, n = 9): 1 (11.1) n (%)
- Treatment-emergent AE: Pain in extremity (phase 1, 200 mg, n = 9): 0 n (%)
- Treatment-emergent AE: Petechiae (phase 1, 200 mg, n = 9): 0 n (%)
- Treatment-emergent AE: Pyrexia (phase 1, 200 mg, n = 9): 2 (22.2) n (%)
- Treatment-emergent AE: Skin lesion (phase 1, 200 mg, n = 9): 1 (11.1) n (%)
- Treatment-emergent AE: Thrombocytopenia (phase 1, 200 mg, n = 9): 0 n (%)
- Treatment-emergent AE: Upper respiratory tract infection (phase 1, 200 mg, n = 9): 2 (22.2) n (%)
- Treatment-emergent AE: Vomiting (phase 1, 200 mg, n = 9): 4 (44.4) n (%)
- Treatment-emergent AE: Abdominal distension (phase 1, 300 mg, n = 6): 1 (16.7) n (%)
- Treatment-emergent AE: Abdominal pain (phase 1, 300 mg, n = 6): 1 (16.7) n (%)
- Treatment-emergent AE: Anemia (phase 1, 300 mg, n = 6): 1 (16.7) n (%)
- Treatment-emergent AE: Any AE (phase 1, 300 mg, n = 6): 6 (100.0) n (%)
- Treatment-emergent AE: Asthenia (phase 1, 300 mg, n = 6): 0 n (%)
- Treatment-emergent AE: Back pain (phase 1, 300 mg, n = 6): 1 (16.7) n (%)
- Treatment-emergent AE: Cardiac murmur (phase 1, 300 mg, n = 6): 0 n (%)
- Treatment-emergent AE: Chills (phase 1, 300 mg, n = 6): 0 n (%)
- Treatment-emergent AE: Constipation (phase 1, 300 mg, n = 6): 1 (16.7) n (%)
- Treatment-emergent AE: Cough (phase 1, 300 mg, n = 6): 1 (16.7) n (%)
- Treatment-emergent AE: Decreased appetite (phase 1, 300 mg, n = 6): 0 n (%)
- Treatment-emergent AE: Dehydration (phase 1, 300 mg, n = 6): 0 n (%)
- Treatment-emergent AE: Diarrhea (phase 1, 300 mg, n = 6): 3 (50.0) n (%)
- Treatment-emergent AE: Dizziness (phase 1, 300 mg, n = 6): 1 (16.7) n (%)
- Treatment-emergent AE: Dyspnea (phase 1, 300 mg, n = 6): 0 n (%)
- Treatment-emergent AE: Edema peripheral (phase 1, 300 mg, n = 6): 0 n (%)
- Treatment-emergent AE: Epistaxis (phase 1, 300 mg, n = 6): 2 (33.3) n (%)
- Treatment-emergent AE: Fatigue (phase 1, 300 mg, n = 6): 2 (33.3) n (%)
- Treatment-emergent AE: Hyperbilirubinemia (phase 1, 300 mg, n = 6): 1 (16.7) n (%)
- Treatment-emergent AE: Hyperuricemia (phase 1, 300 mg, n = 6): 0 n (%)
- Treatment-emergent AE: Insomnia (phase 1, 300 mg, n = 6): 1 (16.7) n (%)
- Treatment-emergent AE: Nausea (phase 1, 300 mg, n = 6): 3 (50.0) n (%)
- Treatment-emergent AE: Neutropenia (phase 1, 300 mg, n = 6): 1 (16.7) n (%)
- Treatment-emergent AE: Night sweats (phase 1, 300 mg, n = 6): 0 n (%)
- Treatment-emergent AE: Pain in extremity (phase 1, 300 mg, n = 6): 1 (16.7) n (%)
- Treatment-emergent AE: Petechiae (phase 1, 300 mg, n = 6): 0 n (%)
- Treatment-emergent AE: Pyrexia (phase 1, 300 mg, n = 6): 1 (16.7) n (%)
- Treatment-emergent AE: Skin lesion (phase 1, 300 mg, n = 6): 0 n (%)
- Treatment-emergent AE: Thrombocytopenia (phase 1, 300 mg, n = 6): 1 (16.7) n (%)
- Treatment-emergent AE: Upper respiratory tract infection (phase 1, 300 mg, n = 6): 1 (16.7) n (%)
- Treatment-emergent AE: Vomiting (phase 1, 300 mg, n = 6): 2 (33.3) n (%)
- Treatment-emergent AE: Abdominal distension (phase 1, 400 mg, n = 6): 3 (50.0) n (%)
- Treatment-emergent AE: Abdominal pain (phase 1, 400 mg, n = 6): 2 (33.3) n (%)
- Treatment-emergent AE: Anemia (phase 1, 400 mg, n = 6): 2 (33.3) n (%)
- Treatment-emergent AE: Any AE (phase 1, 400 mg, n = 6): 6 (100.0) n (%)
- Treatment-emergent AE: Asthenia (phase 1, 400 mg, n = 6): 0 n (%)
- Treatment-emergent AE: Back pain (phase 1, 400 mg, n = 6): 2 (33.3) n (%)
- Treatment-emergent AE: Cardiac murmur (phase 1, 400 mg, n = 6): 1 (16.7) n (%)
- Treatment-emergent AE: Chills (phase 1, 400 mg, n = 6): 1 (16.7) n (%)
- Treatment-emergent AE: Constipation (phase 1, 400 mg, n = 6): 2 (33.3) n (%)
- Treatment-emergent AE: Cough (phase 1, 400 mg, n = 6): 1 (16.7) n (%)
- Treatment-emergent AE: Decreased appetite (phase 1, 400 mg, n = 6): 3 (50.0) n (%)
- Treatment-emergent AE: Dehydration (phase 1, 400 mg, n = 6): 2 (33.3) n (%)
- Treatment-emergent AE: Diarrhea (phase 1, 400 mg, n = 6): 6 (100.0) n (%)
- Treatment-emergent AE: Dizziness (phase 1, 400 mg, n = 6): 1 (16.7) n (%)
- Treatment-emergent AE: Dyspnea (phase 1, 400 mg, n = 6): 2 (33.3) n (%)
- Treatment-emergent AE: Edema peripheral (phase 1, 400 mg, n = 6): 2 (33.3) n (%)
- Treatment-emergent AE: Epistaxis (phase 1, 400 mg, n = 6): 1 (16.7) n (%)
- Treatment-emergent AE: Fatigue (phase 1, 400 mg, n = 6): 2 (33.3) n (%)
- Treatment-emergent AE: Hyperbilirubinemia (phase 1, 400 mg, n = 6): 1 (16.7) n (%)
- Treatment-emergent AE: Hyperuricemia (phase 1, 400 mg, n = 6): 0 n (%)
- Treatment-emergent AE: Insomnia (phase 1, 400 mg, n = 6): 1 (16.7) n (%)
- Treatment-emergent AE: Nausea (phase 1, 400 mg, n = 6): 4 (66.7) n (%)
- Treatment-emergent AE: Neutropenia (phase 1, 400 mg, n = 6): 1 (16.7) n (%)
- Treatment-emergent AE: Night sweats (phase 1, 400 mg, n = 6): 2 (33.3) n (%)
- Treatment-emergent AE: Pain in extremity (phase 1, 400 mg, n = 6): 0 n (%)
